# Assay: solvent given as SMILES
# [1] = in O=P(c1ccccc1)(c1ccccc1)c1ccccc1Oc1ccccc1P(=O)(c1ccccc1)c1ccccc1
structure (smiles),measurement,setting,value
Cc1ccc(NC(=O)c2sc(Br)nc2C)cc1,emission maximum,in C1CCOC1,407.5 nm
same,emission maximum,in CC#N,399.5 nm
same,emission maximum,in CCCCCC,399 nm
same,emission maximum,in CCOC(C)=O,404.5 nm
same,emission maximum,in CN(C)C=O,451 nm
same,emission maximum,in CO,403 nm
same,emission maximum,in CS(C)=O,401.5 nm
same,emission maximum,in ClC(Cl)Cl,412.4 nm
CN(C)c1ccc(C(=O)Nc2cccc(Br)c2)cc1,emission maximum,in C1CCCCC1,338 nm
same,emission maximum,in C1CCOC1,455 nm
same,emission maximum,in CC#N,496 nm
same,emission maximum,in CCOCC,445 nm
Cc1cc(C)c(-c2nnc(-c3ccc(-n4c5ccccc5c5ccccc54)c(C)c3)o2)c(C)c1,emission maximum,in CCO,440 nm
same,emission maximum,in Cc1ccccc1,377 nm
CCCCCCCCCCN1C(=O)c2cc(NCCCOCCO)c3c4c(cc(NCCCOCCO)c(c24)C1=O)C(=O)N(CCCCCCCCCC)C3=O,emission maximum,in CO,642 nm
same,emission maximum,in ClC(Cl)Cl,640 nm
CC(C)(C)c1ccc2c(c1)c1cc(C(C)(C)C)ccc1n2-c1ccc2oc3nc4oc5cc(C(F)(F)F)ccc5c4cc3c2c1,emission maximum,in ClC(Cl)Cl,466 nm
Cc1cc(-c2nnc(-c3ccccc3)o2)ccc1-n1c2ccccc2c2ccccc21,emission maximum,in CCO,445 nm
same,emission maximum,in Cc1ccccc1,382 nm
CC(C)(C)OC(=O)COc1ccc2c(c1)oc(=O)c1c(=O)oc3ccccc3c12,emission maximum,in CS(C)=O,449 nm
same,emission maximum,in ClCCl,440 nm
CC(C)(C)c1ccc2c(c1)Cc1cc(C(C)(C)C)ccc1-2,emission maximum,in C1CCCCC1,348 nm
F[B-]1(F)n2c(c3ccccc3c2-c2ccccc2)C(c2ccccc2)=C2c3ccccc3C(c3ccccc3)=[N+]21,emission maximum,in ClCCl,664 nm
F[B-]1(F)Oc2ccccc2-c2cc(-n3c4ccccc4c4ccccc43)cc[n+]21,emission maximum,in Cc1ccccc1,449 nm
same,emission maximum,[1],475 nm
O=C1NC(=O)c2ccc(N3CCOCC3)c3cccc1c23,emission maximum,in ClC(Cl)Cl,504 nm
CCCC1=Cc2nc1ccc1[nH]c(cc1CCO)c1nc(ccc3[nH]c2cc3CCC)C(CCO)=C1,emission maximum,in Cc1ccccc1,642 nm
O=C1NC(=O)c2ccc3c4ccc5c6c(ccc(c7ccc1c2c73)c64)C(=O)N(c1ccc(Cl)cc1)C5=O,emission maximum,in CN(C)C=O,536 nm
C1=Cc2nc1c(-c1ccccc1)c1ccc([nH]1)c(-c1ccccc1)c1nc(c(-c3ccccc3)c3ccc([nH]3)c2-c2ccccc2)C=C1,emission maximum,in CC(=O)N(C)C,650 nm
same,emission maximum,in ClCCl,651 nm
c1ccc2c(c1)c1ccccc1n2-c1ccc2c(c1)c1ccccc1n2-c1ccc(-n2c3ccccc3c3cc(-n4c5ccccc5c5ccccc54)ccc32)cc1,emission maximum,in C1CCOC1,372 nm
same,emission maximum,in CC(C)=O,379 nm
same,emission maximum,in Cc1ccccc1,372 nm
same,emission maximum,in ClCCl,383 nm
c1ccc(-c2nc(-c3ccccc3)nc(-c3ccc(-n4c5ccccc5c5cc6c(cc54)C(c4ccccc4)(c4ccccc4)c4ccccc4-6)cc3)n2)cc1,emission maximum,in C1CCOC1,494.27 nm
same,emission maximum,in CCCCCC,400.55 nm
same,emission maximum,in Cc1ccccc1,442 nm
same,emission maximum,in ClCCl,519.15 nm
same,emission maximum,[1],471 nm
c1ccc(-c2nc(-c3ccccc3)nc(-c3cc(-n4c5ccccc5c5ncccc54)c(-n4c5ccccc5c5ccccc54)c(-n4c5ccccc5c5ncccc54)c3)n2)cc1,emission maximum,in CC#N,525.35 nm
same,emission maximum,in CCCCCC,446.05 nm
same,emission maximum,in Cc1ccccc1,464.88 nm
same,emission maximum,in ClCCl,502.79 nm
same,emission maximum,[1],455.49 nm
CC/[NH+]=c1\cc2oc3cc(NCCO)c4ccccc4c3nc-2cc1C,emission maximum,in CCO,643 nm
same,emission maximum,in O,651 nm
CC[N+](CC)=c1ccc2c(-c3ccccc3C(=O)O)c3oc4cc(N)ccc4c3oc-2c1,emission maximum,in CCO,622 nm
same,emission maximum,in ClCCl,617 nm
same,emission maximum,in O,634 nm
N#Cc1ccc(C#Cc2ccc(C#Cc3ccccc3C#N)cc2C#N)cc1,emission maximum,in ClC(Cl)Cl,370 nm
N#Cc1ccc(-n2c(-c3ccc(-c4ccc(N(c5ccccc5)c5ccccc5)cc4)s3)nc3c4ccccc4c4ccccc4c32)c2ccccc12,emission maximum,in ClCCl,408 nm
CCN(C)c1ccc(C2=C3C(C)=CC(/C=C/c4ccc(OCC(=O)OC)cc4)=[N+]3[B-](F)(F)n3c(C)cc(C)c32)cc1,emission maximum,in CO,581 nm
CC(=O)Nc1ccc(C2=C/C(=C\c3ccc(C#N)cc3)C(=O)N2)cc1,emission maximum,in C1COCCO1,584 nm
CC(C)c1cccc(C(C)C)c1N1C(=O)c2cc(Cl)c3c4c(Cl)cc5c6c(cc(Cl)c(c7c(Cl)cc(c2c37)C1=O)c64)C(=O)N(c1c(C(C)C)cccc1C(C)C)C5=O,emission maximum,in Cc1ccccc1,552 nm
CCOC(=O)CSc1nc2c(c(C#N)c1C#N)CCCC2,emission maximum,in c1ccccc1,407 nm
N#CC1=CC(c2ccccc2)=CC(C#N)=P1(c1ccccc1)c1ccccc1,emission maximum,in ClC(Cl)Cl,525 nm
COc1ccc2c(c1)c1c(c3cc(OC)ccc32)=[N+]2C(=C(c3c(C)cc(C)cc3C)c3cc4c5cc(OC)ccc5c5ccc(OC)cc5c4n3[B-]2(F)F)C=1,emission maximum,in C1CCCCC1,710 nm
same,emission maximum,in C1CCOC1,713 nm
same,emission maximum,in CC#N,711 nm
same,emission maximum,in Cc1ccccc1,717 nm
same,emission maximum,in ClCCl,713 nm
COC(=O)/C=C/c1sc(-c2ccc(N(C)C)cc2)cc1N,emission maximum,in CC#N,609 nm
CCCCC1(CCCC)c2cc(C#Cc3ccc(C=C4c5ccccc5CCc5ccccc54)cc3)ccc2-c2ccc(C#Cc3ccc(C=C4c5ccccc5CCc5ccccc54)cc3)cc21,emission maximum,in C1CCOC1,406 nm
CN(C)c1ccc2c(c1)-c1ccccc1C2=O,emission maximum,in C1CCCCC1,491 nm
same,emission maximum,in CC#N,557 nm
same,emission maximum,in CCO,592 nm
same,emission maximum,in c1ccccc1,526 nm
CN(C)c1ccc(-c2ccc3n2[B-](F)(F)[N+]2=C(c4ccccc4)C=CC2=C3C(F)(F)F)cc1,emission maximum,in C1COCCO1,756 nm
same,emission maximum,in CC#N,772 nm
same,emission maximum,in CCCCCC,696 nm
same,emission maximum,in CCCCO,745 nm
same,emission maximum,in CCCCOCCCC,728 nm
same,emission maximum,in CCO,750 nm
same,emission maximum,in CCOC(C)=O,755 nm
same,emission maximum,in CS(C)=O,800 nm
same,emission maximum,in Cc1ccccc1,746 nm
same,emission maximum,in ClC(Cl)(Cl)Cl,712 nm
Brc1cnc(-c2ccncc2)s1,emission maximum,in CO,396 nm
CN(C)c1ccc2nc(-c3ccc(C(=O)OC[C@H](NC(=O)OC(C)(C)C)C(=O)OCc4ccccc4)cc3)sc2c1,emission maximum,in C1CCCCC1,456 nm
same,emission maximum,in CC#N,568 nm
same,emission maximum,in CC(C)O,558 nm
same,emission maximum,in CO,577 nm
same,emission maximum,in CS(C)=O,583 nm
same,emission maximum,in ClC(Cl)Cl,504 nm
same,emission maximum,in c1ccccc1,484 nm
c1ccc(-c2cc3cccc[n+]3[b-]3ccc(-c4cc[b-]5c(c4)c(-c4ccccc4)cc4cccc[n+]54)cc32)cc1,emission maximum,in C1CCCCC1,568 nm
CC1(C)c2ccccc2N(c2ccc(-c3nc([C@]45CC6CC(C[C@@H](C6)C4)C5)nc([C@]45C[C@H]6C[C@@H](C[C@H](C6)C4)C5)n3)cc2)c2ccccc21,emission maximum,in CC(C)(C)c1ccc(-n2c3ccc([Si](c4ccccc4)(c4ccccc4)c4ccccc4)cc3c3cc([Si](c4ccccc4)(c4ccccc4)c4ccccc4)ccc32)cc1,450 nm
same,emission maximum,in Cc1ccccc1,469.63 nm
O=C(O)CCCc1ccc2ccc3cccc4ccc1c2c34,emission maximum,in CO,375 nm
Cc1c(C(=O)c2ccccc2Cl)c2ccc3cccc4c5cccc6ccc1c(c65)c2c34,emission maximum,in ClCCl,482 nm
COc1ccc(C2=[N+]3C(=Nc4c(-c5ccccc5)cc(-c5ccc(OC)cc5)n4[B-]3(F)F)C(c3ccccc3)=C2)cc1,emission maximum,in ClC(Cl)Cl,715 nm
same,emission maximum,in ClCCl,715 nm
Nc1ccc(/C=C/c2cccnc2)cc1,emission maximum,in CC#N,446 nm
same,emission maximum,in CCCCCC,390 nm
c1cc2cc(c1)c1ccc3c(c1)c1cc(ccc1[C@]14OCCO[C@]31OCCO4)c1ccc3c(c1)c1cc(ccc1[C@]14OCCO[C@]31OCCO4)c1cccc2c1,emission maximum,in ClC(Cl)Cl,347 nm
CCN(CC)c1ccc(C2=C3C(C)=CC(/C=C/c4ccc(OCC(=O)OC)cc4)=[N+]3[B-](F)(F)n3c(C)cc(C)c32)cc1,emission maximum,in CO,581 nm
CCCCCCOC(=O)/C=C/C1=CC2=C(c3c(C)cc(C)cc3C)c3cc(/C=C/C(=O)OCCCCCC)cn3[B-](F)(F)[N+]2=C1,emission maximum,in ClCCl,606 nm
FC(F)(F)c1c(-n2c3ccccc3c3ccccc32)c(-n2c3ccccc3c3ccccc32)cc(-n2c3ccccc3c3ccccc32)c1-n1c2ccccc2c2ccccc21,emission maximum,in ClCCl,440 nm
C[C@]12SC(=O)C=C1c1nc(-c3ccc(O)cc3)[nH]c1C1=CC(=O)S[C@@]12C,emission maximum,in CC#N,536 nm
C(=C\c1cnc2ccccc2n1)/c1ccc(N2CCCCC2)cc1,emission maximum,in C1CCOC1,557 nm
same,emission maximum,in CC#N,617 nm
same,emission maximum,in CCCCCCC,480 nm
same,emission maximum,in CS(C)=O,626 nm
same,emission maximum,in ClCCl,583 nm
Cc1cc(-n2c3ccccc3c3cc4c(cc32)C2c3ccccc3C4c3ccccc32)c(C)cc1-c1nc(-c2ccccc2)nc(-c2ccccc2)n1,emission maximum,in Cc1ccccc1,427 nm
same,emission maximum,[1],442 nm
CC[N+]1(CC)CN2C(=N1)C(C(=O)O)=Cc1ccc(C)cc12,emission maximum,in O,457 nm
CCC1=C(C)C2=C(/C=C/Sc3ccccc3)c3c(C)c(CC)c(C)n3[B-](F)(F)[N+]2=C1C,emission maximum,in ClCCl,580 nm
COC(=O)C[C@H](NC(=O)[C@H](Cc1c[nH]c2ccccc12)NC(=O)OC(C)(C)C)C(=O)OC,emission maximum,in CC#N,330 nm
same,emission maximum,in CCOC(C)=O,327 nm
same,emission maximum,in CO,338 nm
Cc1cccc(C)c1-c1cc2c(C)c3c4ccc5nc6c(ccc7c8c(C)c9cc(-c%10c(C)cccc%10C)c(-c%10c(C)cccc%10C)cc9c(C)c8c76)nc5c4c3c(C)c2cc1-c1c(C)cccc1C,emission maximum,in ClC(Cl)Cl,670 nm
COc1ccc2cc(/C=C/c3ccccc3)c(=O)oc2c1,emission maximum,in CC#N,464 nm
C(#Cc1cccs1)C(C#Cc1cccs1)=Cc1ccc(C=C(C#Cc2cccs2)C#Cc2cccs2)cc1,emission maximum,in ClC(Cl)Cl,498 nm
COc1ccc2c3ccc(OC)cc3n(-c3ccc(-c4nnc(-c5c(C)cc(C)cc5C)o4)cc3C)c2c1,emission maximum,in Cc1ccccc1,436 nm
CCCCOC(=O)c1cc(Oc2ccc(C(C)(C)C)cc2)c2c3c(Cl)cc4c5c(cc(Cl)c(c6c(Oc7ccc(C(C)(C)C)cc7)cc(C(=O)OCCCC)c1c26)c53)C(=O)N(c1c(C(C)C)cccc1C(C)C)C4=O,emission maximum,in Cc1ccccc1,589 nm
c1ccc(Nc2nc(Nc3ccccc3)nc(Nc3cc4ccc5cccc6ccc(c3)c4c56)n2)cc1,emission maximum,in CC#N,398 nm
same,emission maximum,in CCCCOCCCC,397 nm
same,emission maximum,in CO,399 nm
